The values below come from ChEMBL document CHEMBL1909046, “DrugMatrix in vitro pharmacology data”.

5-hydroxytryptamine receptor 4, sequence (O70528 whole entry): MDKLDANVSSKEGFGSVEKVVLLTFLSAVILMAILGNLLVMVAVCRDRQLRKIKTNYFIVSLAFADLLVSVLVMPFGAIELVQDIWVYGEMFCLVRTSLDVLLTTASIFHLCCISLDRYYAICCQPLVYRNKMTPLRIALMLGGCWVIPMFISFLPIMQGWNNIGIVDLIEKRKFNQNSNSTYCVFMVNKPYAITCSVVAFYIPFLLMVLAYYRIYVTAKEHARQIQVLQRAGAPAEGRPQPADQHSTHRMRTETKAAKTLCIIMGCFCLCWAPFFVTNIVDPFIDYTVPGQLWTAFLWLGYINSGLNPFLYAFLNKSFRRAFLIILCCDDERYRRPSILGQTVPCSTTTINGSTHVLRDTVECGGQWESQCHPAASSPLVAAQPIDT

One assay concerns the target 5-hydroxytryptamine receptor 4 (Cavia porcellus, UniProt O70528). It counts as cell membranes, Dunkin-Hartley, Striatum, Membrane. Further: in other assays of this panel Not Active means under 50% inhibition at 10 µM.
Conditions: not given
With `Fc1ccc([C@@H]2CCNC[C@H]2COc2ccc3c(c2)OCO3)cc1` [PAROXETINE], the IC50 entry is on record as “Not Active”.

Regarding `N#C[C@H](O[C@@H]1O[C@H](CO[C@@H]2O[C@H](CO)[C@@H](O)[C@H](O)[C@H]2O)[C@@H](O)[C@H](O)[C@H]1O)c1ccccc1` [AMYGDALIN], the 50% inhibitory concentration (IC50) entry is “Not Active”.

As to `COCc1c(C(C)C)nc(C(C)C)c(/C=C/[C@@H](O)C[C@@H](O)CC(=O)O)c1-c1ccc(F)cc1` [CERIVASTATIN], the IC50 result is on record as “Not Active”.

In the case of CISPLATIN, the IC50 result is listed as “Not Active” and the Ki result is “Not Active”.

With `CCOC(=O)c1ccc(N)cc1` [BENZOCAINE], the IC50 entry was “Not Active”.

On to `CCCCCCCCCc1ccc(O)cc1` [4-NONYLPHENOL], for which the concentration for half-maximal inhibition (IC50) result is recorded as “Not Active”.

As for `c1ccc2c(c1)cc1ccc3cccc4ccc2c1c34`, the IC50 result is reported as “Not Active”.

For the compound `COc1ccc([C@@H]2Sc3ccccc3N(CCN(C)C)C(=O)[C@@H]2OC(C)=O)cc1` [DILTIAZEM], the 50% inhibitory concentration (IC50) result is “Not Active”.

Regarding `NCC(=O)O` [GLYCINE], the half-inhibitory concentration (IC50) result is “Not Active”.

On to `O=C1CCc2cc(OCCCCc3nnnn3C3CCCCC3)ccc2N1` [CILOSTAZOL], for which the IC50 result is listed as “Not Active”.

Test system in a further assay: not listed separately
The assay is described as follows: DRUGMATRIX: Tumor Necrosis Factor (TNF), Non-Selective radioligand binding (ligand: [125I] TNF-alpha). It counts as cell membranes, Membrane. To be noted: u-937; Not Active = under 50% inhibition at 10 µM.
Consider `Fc1ccc([C@@H]2CCNC[C@H]2COc2ccc3c(c2)OCO3)cc1` [PAROXETINE], for which the concentration for half-maximal inhibition (IC50) entry is reported as “Not Active” and the Ki entry is “Not Active”.

On to `N#C[C@H](O[C@@H]1O[C@H](CO[C@@H]2O[C@H](CO)[C@@H](O)[C@H](O)[C@H]2O)[C@@H](O)[C@H](O)[C@H]1O)c1ccccc1` [AMYGDALIN], for which the half-inhibitory concentration (IC50) result was “Not Active” and the Ki entry is “Not Active”.

In the case of `COCc1c(C(C)C)nc(C(C)C)c(/C=C/[C@@H](O)C[C@@H](O)CC(=O)O)c1-c1ccc(F)cc1` [CERIVASTATIN], the 50% inhibitory concentration (IC50) result is given as “Not Active” and the Ki result is on record as “Not Active”.

Consider CISPLATIN, for which the IC50 result is on record as “Not Active” and the Ki entry is “Not Active”.

Consider `CCOC(=O)c1ccc(N)cc1` [BENZOCAINE], for which the IC50 entry is on record as “Not Active” and the Ki result is listed as “Not Active”.

On to `CCCCCCCCCc1ccc(O)cc1` [4-NONYLPHENOL], for which the IC50 entry was “Not Active” and the Ki entry was “Not Active”.

Take `c1ccc2c(c1)cc1ccc3cccc4ccc2c1c34`: the half-maximal inhibitory concentration (IC50) result is listed as “Not Active” and the Ki entry is “Not Active”.

For `COc1ccc([C@@H]2Sc3ccccc3N(CCN(C)C)C(=O)[C@@H]2OC(C)=O)cc1` [DILTIAZEM], the IC50 entry was “Not Active” and the Ki entry is “Not Active”.

For the compound `NCC(=O)O` [GLYCINE], the IC50 result was “Not Active” and the Ki entry is given as “Not Active”.

As to `O=C1CCc2cc(OCCCCc3nnnn3C3CCCCC3)ccc2N1` [CILOSTAZOL], the concentration for half-maximal inhibition (IC50) entry is “Not Active” and the Ki entry is on record as “Not Active”.

Test system in the next assay: not listed separately
The assay is described as follows: DRUGMATRIX: Imidazoline I2, Central radioligand binding (ligand: [3H] Idazoxan). The assay is classed as cell membranes, Rattus norvegicus, Wistar, Cerebral cortex, Membrane. To be noted: Not Active = under 50% inhibition at 10 µM.
Consider `Fc1ccc([C@@H]2CCNC[C@H]2COc2ccc3c(c2)OCO3)cc1` [PAROXETINE], for which the IC50 result is “Not Active” and the Ki result is given as “Not Active”.

Regarding `N#C[C@H](O[C@@H]1O[C@H](CO[C@@H]2O[C@H](CO)[C@@H](O)[C@H](O)[C@H]2O)[C@@H](O)[C@H](O)[C@H]1O)c1ccccc1` [AMYGDALIN], the half-inhibitory concentration (IC50) result is on record as “Not Active” and the Ki entry is reported as “Not Active”.

For `COCc1c(C(C)C)nc(C(C)C)c(/C=C/[C@@H](O)C[C@@H](O)CC(=O)O)c1-c1ccc(F)cc1` [CERIVASTATIN], the half-inhibitory concentration (IC50) result was “Not Active” and the Ki result is listed as “Not Active”.

As for CISPLATIN, the IC50 result was “Not Active” and the Ki result is “Not Active”.

For `CCOC(=O)c1ccc(N)cc1` [BENZOCAINE], the IC50 result was “Not Active” and the Ki entry was “Not Active”.

Consider `CCCCCCCCCc1ccc(O)cc1` [4-NONYLPHENOL], for which the IC50 result is “Not Active” and the Ki result is “Not Active”.

As to `c1ccc2c(c1)cc1ccc3cccc4ccc2c1c34`, the IC50 result is on record as “Not Active” and the Ki entry is “Not Active”.

Regarding `COc1ccc([C@@H]2Sc3ccccc3N(CCN(C)C)C(=O)[C@@H]2OC(C)=O)cc1` [DILTIAZEM], the 50% inhibitory concentration (IC50) entry is listed as “Not Active” and the Ki entry is recorded as “Not Active”.

As for `NCC(=O)O` [GLYCINE], the IC50 result is recorded as “Not Active” and the Ki result was “Not Active”.

For the compound `O=C1CCc2cc(OCCCCc3nnnn3C3CCCCC3)ccc2N1` [CILOSTAZOL], the half-maximal inhibitory concentration (IC50) entry is “Not Active” and the Ki entry is reported as “Not Active”.

For a further assay, the target named is T1, Amine oxidase [flavin-containing] A (Homo sapiens, UniProt P21397).
T1 sequence (P21397 whole entry): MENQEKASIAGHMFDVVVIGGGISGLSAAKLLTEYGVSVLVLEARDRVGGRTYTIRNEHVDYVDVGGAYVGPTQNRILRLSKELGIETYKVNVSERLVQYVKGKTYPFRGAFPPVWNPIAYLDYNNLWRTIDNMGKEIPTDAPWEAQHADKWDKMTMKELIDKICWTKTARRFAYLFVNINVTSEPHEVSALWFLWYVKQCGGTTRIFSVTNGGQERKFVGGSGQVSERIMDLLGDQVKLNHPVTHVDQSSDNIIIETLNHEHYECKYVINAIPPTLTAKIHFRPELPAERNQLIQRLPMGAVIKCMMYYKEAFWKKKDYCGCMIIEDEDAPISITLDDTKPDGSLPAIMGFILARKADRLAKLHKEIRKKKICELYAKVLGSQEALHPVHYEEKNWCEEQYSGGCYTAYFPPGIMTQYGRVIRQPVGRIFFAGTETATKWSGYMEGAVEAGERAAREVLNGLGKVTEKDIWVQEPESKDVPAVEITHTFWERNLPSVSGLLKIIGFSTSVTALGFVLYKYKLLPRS
In words: DRUGMATRIX: Monoamine Oxidase MAO-A enzyme inhibition (substrate: Kynuramine). Also noted: species or system BTI-TN-5B1-4. To be noted: Not Active = under 50% inhibition at 10 µM; read-out: IC50.
Consider `c1ccc2c(c1)cc1ccc3cccc4ccc2c1c34`, for which the concentration for half-maximal inhibition (IC50) came out at 5.97 µM.

The same assay, now with this note: bti-tn-5b1-4; Not Active = under 50% inhibition at 10 µM.
`Fc1ccc([C@@H]2CCNC[C@H]2COc2ccc3c(c2)OCO3)cc1` [PAROXETINE]: the IC50 result was “Not Active”.

In the case of `N#C[C@H](O[C@@H]1O[C@H](CO[C@@H]2O[C@H](CO)[C@@H](O)[C@H](O)[C@H]2O)[C@@H](O)[C@H](O)[C@H]1O)c1ccccc1` [AMYGDALIN], the IC50 result was “Not Active”.

Consider `COCc1c(C(C)C)nc(C(C)C)c(/C=C/[C@@H](O)C[C@@H](O)CC(=O)O)c1-c1ccc(F)cc1` [CERIVASTATIN], for which the half-maximal inhibitory concentration (IC50) result is given as “Not Active”.

CISPLATIN: the IC50 result is “Not Active” and the Ki entry is reported as “Not Active”.

As to `CCOC(=O)c1ccc(N)cc1` [BENZOCAINE], the IC50 entry is “Not Active”.

As to `CCCCCCCCCc1ccc(O)cc1` [4-NONYLPHENOL], the IC50 entry is reported as “Not Active”.

Turning to `COc1ccc([C@@H]2Sc3ccccc3N(CCN(C)C)C(=O)[C@@H]2OC(C)=O)cc1` [DILTIAZEM], the IC50 result is on record as “Not Active”.

For the compound `NCC(=O)O` [GLYCINE], the half-inhibitory concentration (IC50) entry is listed as “Not Active”.

Take `O=C1CCc2cc(OCCCCc3nnnn3C3CCCCC3)ccc2N1` [CILOSTAZOL]: the IC50 entry is listed as “Not Active”.

The next assay addresses T2, Androgen receptor (Rattus norvegicus, UniProt P15207).
T2 sequence (P15207 whole entry): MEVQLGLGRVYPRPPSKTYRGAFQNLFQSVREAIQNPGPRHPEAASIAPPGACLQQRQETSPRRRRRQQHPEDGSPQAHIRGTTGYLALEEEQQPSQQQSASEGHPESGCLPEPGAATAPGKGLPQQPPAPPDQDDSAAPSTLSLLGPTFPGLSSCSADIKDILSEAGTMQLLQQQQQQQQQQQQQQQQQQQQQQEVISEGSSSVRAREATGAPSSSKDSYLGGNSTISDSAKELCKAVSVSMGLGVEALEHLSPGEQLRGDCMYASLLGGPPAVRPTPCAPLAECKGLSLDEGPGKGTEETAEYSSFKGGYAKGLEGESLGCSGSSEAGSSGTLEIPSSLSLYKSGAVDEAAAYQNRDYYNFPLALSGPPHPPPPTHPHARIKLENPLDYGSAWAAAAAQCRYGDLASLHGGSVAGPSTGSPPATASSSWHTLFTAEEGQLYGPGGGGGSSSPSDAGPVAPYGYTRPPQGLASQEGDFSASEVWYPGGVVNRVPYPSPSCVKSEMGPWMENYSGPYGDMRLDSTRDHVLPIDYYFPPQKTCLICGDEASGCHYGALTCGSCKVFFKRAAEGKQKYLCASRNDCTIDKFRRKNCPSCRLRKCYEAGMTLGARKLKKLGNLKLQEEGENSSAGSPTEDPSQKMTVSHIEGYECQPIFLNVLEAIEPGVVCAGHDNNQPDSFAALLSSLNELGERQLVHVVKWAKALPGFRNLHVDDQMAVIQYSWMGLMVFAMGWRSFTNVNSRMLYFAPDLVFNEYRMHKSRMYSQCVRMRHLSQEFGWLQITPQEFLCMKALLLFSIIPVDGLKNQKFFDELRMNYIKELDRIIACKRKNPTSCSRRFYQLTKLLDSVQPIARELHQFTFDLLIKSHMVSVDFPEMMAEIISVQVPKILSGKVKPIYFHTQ
Conditions: not given
As to `Fc1ccc([C@@H]2CCNC[C@H]2COc2ccc3c(c2)OCO3)cc1` [PAROXETINE], the IC50 result was “Not Active”.

Regarding `N#C[C@H](O[C@@H]1O[C@H](CO[C@@H]2O[C@H](CO)[C@@H](O)[C@H](O)[C@H]2O)[C@@H](O)[C@H](O)[C@H]1O)c1ccccc1` [AMYGDALIN], the half-maximal inhibitory concentration (IC50) entry is “Not Active”.

Turning to `COCc1c(C(C)C)nc(C(C)C)c(/C=C/[C@@H](O)C[C@@H](O)CC(=O)O)c1-c1ccc(F)cc1` [CERIVASTATIN], the IC50 result is on record as “Not Active”.

CISPLATIN: the half-maximal inhibitory concentration (IC50) result is “Not Active” and the Ki result is “Not Active”.
